The source of these data is patent US11603373B2, “TDO2 and IDO1 inhibitors” (Genentech, Inc., priority 2017, dated 2023).

Broadly, the EC50 is the concentration that produces a half-maximal response.

In test [1] the target is T1, TDO2 (SW48 cells, high TDO expressing cells) (Homo sapiens, UniProt P48775).
T1 construct: SW48 cells (high TDO expressing cells); endogenous in cells; host or cells: SW48 cells
Briefly: NFK GreenScreen cell assay, inhibition of TDO in SW48 cells. The test is classed as cell-based. The conditions noted are these: read-out: TDO2 Cell Fluor EC50. The source says: (§1) Cells are counted on a Vi-Cell (Beckman Coulter). […] The final DMSO concentration is 0.5%.

For test [2], the target named is T2, IDO1 (A172+IFNg cells, high IDO expressing cells) (Homo sapiens, UniProt P14902).
T2 construct: A172+IFNg cells (high IDO expressing cells); endogenous in cells; host or cells: A172 cells induced with 100 ng/ml IFNγ
T2 sequence (P14902 whole entry): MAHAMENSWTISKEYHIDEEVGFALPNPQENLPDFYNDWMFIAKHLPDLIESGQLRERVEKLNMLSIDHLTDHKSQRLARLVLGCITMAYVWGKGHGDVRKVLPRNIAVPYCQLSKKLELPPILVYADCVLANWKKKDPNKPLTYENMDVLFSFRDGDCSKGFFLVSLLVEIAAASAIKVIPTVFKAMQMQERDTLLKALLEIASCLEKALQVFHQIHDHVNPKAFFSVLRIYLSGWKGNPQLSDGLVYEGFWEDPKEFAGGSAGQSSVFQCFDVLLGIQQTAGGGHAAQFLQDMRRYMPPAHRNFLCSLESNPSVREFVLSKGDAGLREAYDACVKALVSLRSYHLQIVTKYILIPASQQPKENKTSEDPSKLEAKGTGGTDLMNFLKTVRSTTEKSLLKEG
The experiment in a line: NFK GreenScreen cell assay, inhibition of IDO in A172+IFNg cells. The format is cell-based. The note with it: read-out: IDO cell Fluor EC50.
Text: as §1

T1 sequence (P48775 whole entry): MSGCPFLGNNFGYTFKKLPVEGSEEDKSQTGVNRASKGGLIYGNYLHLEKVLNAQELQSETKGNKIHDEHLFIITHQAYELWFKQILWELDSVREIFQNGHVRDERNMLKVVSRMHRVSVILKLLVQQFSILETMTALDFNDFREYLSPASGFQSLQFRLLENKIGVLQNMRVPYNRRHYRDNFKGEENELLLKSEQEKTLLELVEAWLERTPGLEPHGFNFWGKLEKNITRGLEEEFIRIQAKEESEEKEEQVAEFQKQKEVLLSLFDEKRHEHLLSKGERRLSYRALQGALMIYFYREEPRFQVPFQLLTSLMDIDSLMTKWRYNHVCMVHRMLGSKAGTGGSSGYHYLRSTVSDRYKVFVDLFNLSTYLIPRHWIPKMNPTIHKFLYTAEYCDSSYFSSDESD

As for `COCCC(=O)N1CCC2(CC1)C[C@@H]([C@H]1c3ccccc3-c3cncn31)[C@H]2O` [compound 47, 1-[3-hydroxy-2-(5H-imidazo[1,5-b]isoindol-5-yl)-7-azaspiro[3.5]nonan-7-yl]-3-methoxy-propan-1-one], the EC50 in test [1] and in test [2] was 850 nM throughout.

On to `O=C(C1CC1)N1CCC2(CC1)CC(C1c3ccccc3-c3cncn31)C2O` (centres unmarked) [compound 43, cyclopropyl-[3-hydroxy-2-(5H-imidazo[1,5-b]isoindol-5-yl)-7-azaspiro[3.5]nonan-7-yl]methanone], for which the EC50 in test [1] was determined as 850 nM; in test [2], 360 nM.

Regarding `COC(=O)N1CCC2(CC[C@@H]([C@H]3c4ccccc4-c4cncn43)[C@H]2O)CC1` (single isomer, unassigned) [Example 9a], the EC50 in test [1] amounted to 21000 nM; in test [2], 18000 nM.

In the case of `O=S(=O)(C1COC1)N1CCC2(CC1)CC(C1c3ccccc3-c3cncn31)C2O` (centres unmarked) [Example 23a, 2-(5H-imidazo[1,5-b]isoindol-5-yl)-7-(oxetan-3-ylsulfonyl)-7-azaspiro[3.5]nonan-3-ol], the EC50 in test [1] stood at 330 nM; in test [2] it was 150 nM.

On to `Cc1nc(S(=O)(=O)N2CCC3(CC2)C[C@@H]([C@H]2c4ccccc4-c4cncn42)[C@H]3O)cn1C` [compound 30], for which the EC50 in test [1] stood at 490 nM; in test [2], 320 nM.

In the case of `CC(C)(C)OC(=O)N1[C@@H]2CC[C@H]1C[C@]1(C[C@H]([C@H]3c4ccccc4-c4cncn43)[C@@H]1O)C2` (single isomer, unassigned) [Example 12c], the EC50 in test [1] was 520 nM; in test [2], 1900 nM.

Regarding `O=S(=O)(C1CCC1)N1CCC2(CC1)C[C@@H]([C@H]1c3ccccc3-c3cncn31)[C@H]2O` [compound 36, 7-cyclobutylsulfonyl-2-(5H-imidazo[1,5-b]isoindol-5-yl)-7-azaspiro[3.5]nonan-3-ol], the concentration for a half-maximal effect (EC50) stood at 150 nM in test [1] and 35 nM in test [2].

Turning to `CC(C)(C)OC(=O)N1CC2CCC(C1)C21C[C@H]([C@@H]2c3ccccc3-c3cncn32)[C@@H]1O` (relative stereo) [Example 22a, tert-butyl (2′S,3′R)-2′-hydroxy-3′-((R)-5H-imidazo[5,1-a]isoindol-5-yl)-3-azaspiro[bicyclo[3.2.1]octane-8,1′-cyclobutane]-3-carboxylate], the EC50 in test [1] worked out at 410 nM; in test [2], 2100 nM.

As for `CC(C)(C)OC(=O)N1CC2CCC(C1)C21C[C@@H]([C@@H]2c3ccccc3-c3cncn32)[C@@H]1O` (stereo partly drawn) [Example 22e, tert-butyl (2′S,3′S)-2′-hydroxy-3′-((R)-5H-imidazo[5,1-a]isoindol-5-yl)-3-azaspiro[bicyclo[3.2.1]octane-8,1′-cyclobutane]-3-carboxylate], the values for the EC50 in test [1] and in test [2] were 17000 nM and 8500 nM, respectively.

Consider `CC(C)(C)OC(=O)N[C@H]1CC[C@@]2(CC1)C[C@H](C1c3ccccc3-c3cncn31)[C@H]2O` (stereo partly drawn) [Example 24k, tert-butyl ((1S,2S,4s,7R)-1-hydroxy-2-((S)-5H-imidazo[5,1-a]isoindol-5-yl)spiro[3.5]nonan-7-yl)carbamate], for which the 50% effective concentration (EC50) in test [1] was 14000 nM; in test [2] it was 5000 nM.

Consider `NS(=O)(=O)N1CC2(CC[C@H]([C@@H]3c4ccccc4-c4cncn43)[C@H]2O)C1` (single isomer, unassigned) [Example 18], for which the figures for the EC50 in test [1] and in test [2] were 110 nM and 580 nM, respectively.

Turning to `CC(C)(C)OC(=O)N1CCC2(CC[C@H]([C@H]3c4ccccc4-c4cncn43)[C@H]2O)CC1` (single isomer, unassigned) [Example 2b], the values for the EC50 in test [1] and in test [2] were 240 nM and 410 nM, respectively.

For the compound `CC(=O)N1CCC(S(=O)(=O)N2CCC3(CC2)CC(C2c4ccccc4-c4cncn42)C3O)CC1` (centres unmarked) [compound 35, 1-[4-[[3-hydroxy-2-(5H-imidazo[1,5-b]isoindol-5-yl)-7-azaspiro[3.5]nonan-7-yl]sulfonyl]-1-piperidyl]ethanone], the EC50 in test [1] came out at 460 nM; in test [2], 140 nM.

Consider `NS(=O)(=O)N1CCC2(CC1)C[C@H]([C@H]1c3ccccc3-c3cncn31)[C@H]2O` (single isomer, unassigned) [Example 11g], for which the EC50 is 930 nM in test [1] and 4700 nM in test [2].

With `CC(C)(C)OC(=O)N1[C@@H]2CC[C@H]1C[C@@]1(C[C@H]([C@H]3c4ccccc4-c4cncn43)[C@H]1O)C2` (single isomer, unassigned) [Example 12f], the EC50 in test [1] is 11000 nM; in test [2], 1900 nM.

On to `O=C(OCC(F)F)N1CCC2(CC1)C[C@@H]([C@H]1c3ccccc3-c3cncn31)[C@H]2O` [compound 57, 2,2-difluoroethyl (2S,3R)-3-hydroxy-2-[(5S)-5H-imidazo[1,5-b]isoindol-5-yl]-7-azaspiro[3.5]nonane-7-carboxylate], for which the values for the EC50 in test [1] and in test [2] were 260 nM and 87 nM, respectively.

In the case of `O=C(c1cnn2c1OCCC2)N1CCC2(CC1)CC(C1c3ccccc3-c3cncn31)C2O` (centres unmarked) [compound 38, 6,7-dihydro-5H-pyrazolo[5,1-b][1,3]oxazin-3-yl-[3-hydroxy-2-(5H-imidazo[1,5-b]isoindol-5-yl)-7-azaspiro[3.5]nonan-7-yl]methanone], the EC50 in test [1] came out at 2300 nM; in test [2] it was 630 nM.

Take `Cn1ccc(S(=O)(=O)N2CCC3(CC2)CC(C2c4ccccc4-c4cncn42)C3O)n1` (centres unmarked) [compound 44, 2-(5H-imidazo[1,5-b]isoindol-5-yl)-7-(1-methylpyrazol-3-yl)sulfonyl-7-azaspiro[3.5]nonan-3-ol]: the EC50 is 280 nM in test [1] and 82 nM in test [2].

Consider `CS(=O)(=O)N1CCC2(CC1)C[C@@H]([C@H]1c3ccccc3-c3cncn31)[C@@H]2O` (single isomer, unassigned) [Example 6d], for which the EC50 in test [1] was 540 nM; in test [2], 9300 nM.

With `CC(=O)N1CC2(CC[C@H]([C@@H]3c4ccccc4-c4cncn43)[C@H]2O)C1` (single isomer, unassigned) [Example 17], the EC50 in test [1] was determined as 670 nM; in test [2] it was 1300 nM.

As to `O=C(C1CCC1)N1CCC2(CC1)C[C@@H]([C@H]1c3ccccc3-c3cncn31)[C@H]2O` [compound 48, cyclobutyl-[3-hydroxy-2-(5H-imidazo[1,5-b]isoindol-5-yl)-7-azaspiro[3.5]nonan-7-yl]methanone], the EC50 was 730 nM in test [1] and 350 nM in test [2].

On to `NS(=O)(=O)N1CCC2(CC1)C[C@@H]([C@@H]1c3ccccc3-c3cncn31)[C@H]2O` (single isomer, unassigned) [Example 11e], for which the EC50 worked out at 12000 nM in test [1] and 6800 nM in test [2].

Consider `CC(C)(C)OC(=O)N1CCC2(CC[C@@H]([C@H]3c4ccccc4-c4cncn43)[C@H]2O)CC1` (single isomer, unassigned) [Example 2c], for which the EC50 in test [1] is 107 nM; in test [2], 51.5 nM.

Turning to `CS(=O)(=O)N1CCC2(CC1)C[C@@H]([C@@H]1c3ccccc3-c3cncn31)[C@H]2O` (single isomer, unassigned) [Example 6e], the half-maximal effective concentration (EC50) in test [1] stood at 6800 nM; in test [2], 3200 nM.

As for `Cn1cc(CCC(=O)N2CCC3(CC2)C[C@@H]([C@H]2c4ccccc4-c4cncn42)[C@H]3O)cn1` [compound 55, 1-[3-hydroxy-2-(5H-imidazo[1,5-b]isoindol-5-yl)-7-azaspiro[3.5]nonan-7-yl]-3-(1-methylpyrazol-4-yl)propan-1-one], the results for the EC50 in test [1] and in test [2] were 810 nM and 510 nM, respectively.

As for `CS(=O)(=O)N1CCC2(CC1)C[C@@H]([C@@H]1c3ccccc3-c3cncn31)[C@@H]2O` (single isomer, unassigned) [Example 6h], the EC50 in test [1] was found to be 8600 nM; in test [2], 6500 nM.

Consider `CC(C)(C)OC(=O)N1CCC2(CC1)C[C@@H]([C@H]1c3ccccc3-c3cncn31)[C@H]2O` (single isomer, unassigned) [Example 1b], for which the values for the EC50 in test [1] and in test [2] were 300 nM and 27.9 nM, respectively.

For the compound `CC(C)(C)OC(=O)N[C@H]1CC[C@@]2(CC1)C[C@H]([C@H]1c3ccccc3-c3cncn31)[C@@H]2O` (single isomer, unassigned) [Example 24e], the EC50 in test [1] came out at 16000 nM; in test [2] it was 10000 nM.

As for `CC(C)(C)OC(=O)N1CC2(CC[C@H]([C@@H]3c4ccccc4-c4cncn43)[C@H]2O)C1` (single isomer, unassigned) [Example 3f], the results for the EC50 in test [1] and in test [2] were 130 nM and 170 nM, respectively.

For `O=C(CN1CCCC1=O)N1CCC2(CC1)C[C@@H]([C@H]1c3ccccc3-c3cncn31)[C@H]2O` [compound 52, 1-[2-[3-hydroxy-2-(5H-imidazo[1,5-b]isoindol-5-yl)-7-azaspiro[3.5]nonan-7-yl]-2-oxo-ethyl]pyrrolidin-2-one], the EC50 was determined as 3700 nM in test [1] and 3900 nM in test [2].

In the case of `CN(C)C(=O)CCC(=O)N1CCC2(CC1)CC(C1c3ccccc3-c3cncn31)C2O` (centres unmarked) [compound 50, 4-[3-hydroxy-2-(5H-imidazo[1,5-b]isoindol-5-yl)-7-azaspiro[3.5]nonan-7-yl]-N,N-dimethyl-4-oxo-butanamide], the EC50 in test [1] was 1300 nM; in test [2] it was 1500 nM.

Take `CC(=O)N1CCC(C(=O)N2CCC3(CC2)C[C@@H]([C@H]2c4ccccc4-c4cncn42)[C@H]3O)CC1` [compound 68, 1-[4-[3-hydroxy-2-(5H-imidazo[1,5-b]isoindol-5-yl)-7-azaspiro[3.5]nonane-7-carbonyl]-1-piperidyl]ethanone]: the results for the concentration for a half-maximal effect (EC50) in test [1] and in test [2] were 5700 nM and 3400 nM, respectively.

For the compound `CS(=O)(=O)N1CCC2(CC[C@@H]([C@H]3c4ccccc4-c4cncn43)[C@H]2O)CC1` (single isomer, unassigned) [Example 7c], the EC50 in test [1] worked out at 133 nM; in test [2], 115 nM.

For `O=C([C@H]1CC1(F)F)N1CCC2(CC[C@@H]([C@H]3c4ccccc4-c4cncn43)[C@H]2O)CC1` (single isomer, unassigned) [Example 25b], the EC50 in test [1] is 150 nM; in test [2], 160 nM.
